Read-outs that look alike come from different tables or passages of the source.
Experiments:
[1] = biological target: T1, cloned recombinant human HDAC-1 (Homo sapiens, UniProt Q13547); assay: Human HDAC-1 enzyme inhibition, Assay 1 ([3H]-acetylated histone substrate, scintillation counting); assay type: biochemical
T1 construct: made in house; host or cells: Baculovirus insect cell expression system
Procedure, shortened: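 Activity read as [3H]-acetic acid liberated from labeled substrate, ethyl acetate-extracted and scintillation-counted. Compounds preincubated 30 min at 4° C. with baculovirus-expressed, purified human HDAC-1. Dose-response curves give IC50 as concentration producing fifty percent of maximal inhibition.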

[2] = system: HCT116 cells; assay: MTT assay; assay type: cell-based; settings: Homo sapiens, HCT116 cells, 72 hours
Procedure, shortened: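 Read-out: MTT (0.5 mg/ml final, 4 h) after solubilization in 50% DMF/20% SDS, pH 4.7, with OD translated into cell number via the line's growth curve. Compound treatment lasted 72 h at 37 °C in 5% CO2, starting a day after plating.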

[3] = system: acetylated histone H-4 in T24 human bladder cancer cells; assay: Histone H4 acetylation in whole cells by immunoblots; assay type: cell-based; settings: 16 h
Procedure, shortened: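 Acetylated histone H4 was quantified by densitometry of ECL-developed immunoblots, probed with a polyclonal antibody, of […] total histone from T24 cultures exposed 16 h to HDAC inhibitors.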

[4] = Table 5F, read-out: Human HDAC-1 IC50
[5] = T-24, Table 5F, read-out: H4 Ac (T24) EC50
[6] = Table 5E, read-out: Human HDAC-1 IC50
[7] = T-24, Table 5E, read-out: H4 Ac (T24) EC50
[8] = Table 5b, read-out: Human HDAC-1 IC50
[9] = T-24, Table 5b, read-out: H4Ac (T24) EC50
[10] = Table 5a, read-out: Human HDAC-1 IC50
[11] = T-24, Table 5a, read-out: H4Ac (T24) EC50

T1 sequence (Q13547 whole entry): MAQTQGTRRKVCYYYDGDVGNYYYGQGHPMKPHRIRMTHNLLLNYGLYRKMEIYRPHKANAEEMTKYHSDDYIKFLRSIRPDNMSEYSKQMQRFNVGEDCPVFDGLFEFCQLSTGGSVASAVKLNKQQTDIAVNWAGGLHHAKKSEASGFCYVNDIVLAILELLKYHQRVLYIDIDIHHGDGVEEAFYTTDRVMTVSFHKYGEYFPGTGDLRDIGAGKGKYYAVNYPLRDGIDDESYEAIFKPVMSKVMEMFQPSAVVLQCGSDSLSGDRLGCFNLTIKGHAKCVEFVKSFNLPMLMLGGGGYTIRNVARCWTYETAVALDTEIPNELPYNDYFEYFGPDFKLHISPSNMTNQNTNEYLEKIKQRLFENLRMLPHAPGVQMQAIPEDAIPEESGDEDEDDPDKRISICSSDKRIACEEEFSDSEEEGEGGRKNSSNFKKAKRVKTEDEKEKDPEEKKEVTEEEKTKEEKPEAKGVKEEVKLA

## Cn1c(=O)c2cc(NCc3ccc(C(=O)Nc4ccccc4N)cc3)ccc2n(C)c1=O [Cpd 461, N-(2-Amino-phenyl)-4-[(1,3-dimethyl-2,4-dioxo-1,2,3,4-tetrahydro-quinazolin-6-ylamino)-methyl]-benzamide]
[1]; [4]
  IC50: 1.4 µM
[2]; HCT-116, 72 h, Table 5F
  IC50: 300 nM
[3]; [5]
  EC50: 1000 nM

## Nc1ccccc1NC(=O)c1ccc(CSc2nc3ccc(NCc4ccccn4)cc3s2)cc1 [Cpd 326, N-(2-Amino-phenyl)-4-{6-[(pyridin-2-ylmethyl)-amino]-benzothiazol-2-ylsulfanylmethyl}-benzamide]
[1]; [4]
  IC50: 1 µM
[2]; HCT-116, 72 h, Table 5F
  IC50: 1000 nM
[3]; [5]
  EC50: 3000 nM

## COc1cccc(-c2ccc(C(=O)Nc3ccccc3N)cc2)c1 [Cpd 166]
[1]; [6]
  IC50: 2 µM
[2]; HCT-116, 72 h, Table 5E
  IC50: 5000 nM
[3]; [7]
  EC50: 5000 nM

## Nc1ccccc1NC(=O)c1ccc(CNc2ccc(F)cc2)cc1 [Cpd 415, N-(2-Amino-phenyl)-4-[(4-fluoro-phenylamino)-methyl]-benzamide]
[1]; [4]
  IC50: 3 µM
[2]; HCT-116, 72 h, Table 5F
  IC50: 1000 nM
[3]; [5]
  EC50: 3000 nM

## Cn1ccnc1SCc1ccc(C(=O)Nc2ccccc2N)cc1 [Cpd 139, N-(2-Amino-phenyl)-4-(1-methyl-1H-imidazol-2-ylsulfanylmethyl]-benzamide]
[1]; [6]
  IC50: 3 µM
[2]; HCT-116, 72 h, Table 5E
  IC50: 3000 nM
[3]; [7]
  EC50: 5000 nM

## COc1ccc2[nH]c(SCc3ccc4oc(C(=O)Nc5ccccc5N)cc4c3)nc2c1 [Cpd 591, 5-(5-Methoxy-1H-benzoimidazol-2-ylsulfanyl-methyl)-benzofuran-2-carboxylic acid (2-amino-phenyl)amide]
[1]; [4]
  IC50: 4 µM
[2]; HCT-116, 72 h, Table 5F
  IC50: 300 nM
[3]; [5]
  EC50: < 1000 nM

## COc1ccc(NCc2ccc3oc(C(=O)Nc4ccccc4N)cc3c2)cc1OC [compound 587, 5-[(3,4-Dimethoxy-phenylamino)-methyl]-benzofuran-2-carboxylic acid (2-amino-phenyl)-amide]
[1]; [4]
  IC50: 5 µM
[2]; HCT-116, 72 h, Table 5F
  IC50: 800 nM
[3]; [5]
  EC50: 2000 nM

## Nc1ccccc1NC(=O)c1ccc(CNc2nccc(N3CCOCC3)n2)cc1 [Cpd 435, N-(2-Amino-phenyl)-4-[(4-morpholin-4-yl-pyrimidin-2-ylamino)-methyl]-benzamide]
[1]; [4]
  IC50: 3 µM
[2]; HCT-116, 72 h, Table 5F
  IC50: 600 nM
[3]; [5]
  EC50: 1000 nM

## COc1ccc(NCc2ccc(-c3ccc(C(=O)Nc4ccccc4N)cc3)cc2)cc1 [Cpd 190, N-(2-Amino-phenyl)-4-[4-{(4-methoxy-phenylamino)-methyl}-phenyl]-benzamide]
[1]; [4]
  IC50: 3 µM
[2]; HCT-116, 72 h, Table 5F
  IC50: 1000 nM
[3]; [5]
  EC50: > 5000 nM

## COc1cc(NCc2ccc(/C=C/C(=O)Nc3cscc3N)cc2)cc(OC)c1OC [Cpd 570]
[1]; Table 5d, read-out: HDAC-1 IC50
  IC50: 6 µM
[2]; HCT-116, Table 5d
  IC50: 600 nM
[3]; T-24, Table 5d, read-out: H4Ac(T24) EC50
  EC50: 2000 nM

## COc1cccc(SCc2ccc(C(=O)Nc3ccccc3N)cc2)c1 [Cpd 394]
[1]; [4]
  IC50: 4 µM
[2]; HCT-116, 72 h, Table 5F
  IC50: 2000 nM
[3]; [5]
  EC50: 25000 nM

## Cc1ccc(C#N)c(OCc2ccc(C(=O)Nc3ccccc3N)cc2)n1 [Cpd 577, N-(2-Amino-phenyl)-4-(3-cyano-6-methyl-pyridin-2-yloxymethyl)-benzamide]
[1]; [4]
  IC50: 2 µM
[2]; HCT-116, 72 h, Table 5F
  IC50: 500 nM
[3]; [5]
  EC50: 2000 nM

## Nc1ccccc1NC(=O)c1ccc(CNc2nc3cc(Br)ccc3s2)cc1 [Cpd 322, N-(2-Amino-phenyl)-4-[(5-bromo-benzothiazol-2-ylamino)-methyl]-benzamide]
[1]; [4]
  IC50: 0.7 µM
[2]; HCT-116, 72 h, Table 5F
  IC50: 400 nM
[3]; [5]
  EC50: 2000 nM

## Nc1ccccc1NC(=O)c1ccc(CNc2ccc(N3CCOCC3)cc2)cc1 [Cpd 402, N-(2-Amino-phenyl)-4-[(4-morpholin-4-yl-phenylamino)-methyl]-benzamide]
[1]; [4]
  IC50: 14 µM
[2]; HCT-116, 72 h, Table 5F
  IC50: 400 nM
[3]; [5]
  EC50: 1000 nM

## Nc1ccccc1NC(=O)c1ccc(CNc2nc(NCCc3ccccc3)nc(NC3CC3)n2)cc1 [Cpd 471]
[1]; [8]
  IC50: 0.4 µM
[2]; HCT-116, 72 h, Table 5b
  IC50: 1000 nM
[3]; [9]
  EC50: 3000 nM

## Nc1ccccc1NC(=O)/C=C/c1ccc(NC/C=C/c2ccccc2)nc1 [Cpd 112]
[1]; Table 5c, read-out: Human HDAC-1 IC50
  IC50: 2 µM
[2]; HCT-116, 72 h, Table 5c
  IC50: 5000 nM
[3]; T-24, Table 5c, read-out: H4Ac (T24) EC50
  EC50: 5000 nM

## Nc1ccccc1NC(=O)c1ccc(-c2ncc[nH]2)cc1 [Cpd 249]
[1]; [4]
  IC50: 4 µM
[2]; HCT-116, 72 h, Table 5F
  IC50: 1000 nM
[3]; [5]
  EC50: 2000 nM

## Cc1c(Cc2ccc(C(=O)Nc3ccccc3N)cc2)sc(NC(=O)Nc2ccccc2)c1C#N [Cpd 361, N-(2-Amino-phenyl)-4-[4-cyano-3-methyl-5-(3-phenyl-ureido)-thiophen-2-ylmethyl]-benzamide]
[1]; [4]
  IC50: 2 µM
[2]; HCT-116, 72 h, Table 5F
  IC50: 500 nM
[3]; [5]
  EC50: 1000 nM

## Nc1ccccc1NC(=O)c1ccc(NCc2ccc(F)cc2)cc1 [Cpd 413, N-(2-Amino-phenyl)-4-(4-fluoro-benzylamino)-benzamide]
[1]; [4]
  IC50: 2 µM
[2]; HCT-116, 72 h, Table 5F
  IC50: 2000 nM
[3]; [5]
  EC50: 3000 nM

## Nc1ccccc1NC(=O)c1ccc(CNc2ncccn2)cc1 [Cpd 377]
[1]; [4]
  IC50: 4 µM
[2]; HCT-116, 72 h, Table 5F
  IC50: 2000 nM
[3]; [5]
  EC50: 3000 nM

## Nc1ccccc1NC(=O)c1ccc(Cn2nnc3ccc(Br)cc3c2=O)cc1 [Cpd 347, N-(2-Amino-phenyl)-4-(6-bromo-4-oxo-4H-benzo[d][1,2,3]triazin-3-ylmethyl)-benzamide]
[1]; [4]
  IC50: 2 µM
[2]; HCT-116, 72 h, Table 5F
  IC50: 600 nM
[3]; [5]
  EC50: 2000 nM

## Cc1cc(C)nc(OCc2ccc(C(=O)Nc3ccccc3N)cc2)n1 [Cpd 384, N-(2-Amino-phenyl)-4-(4,6-dimethyl-pyrimidin-2-yloxymethyl)-benzamide]
[1]; [4]
  IC50: 3 µM
[2]; HCT-116, 72 h, Table 5F
  IC50: 2000 nM
[3]; [5]
  EC50: 5000 nM

## Nc1ccccc1NC(=O)c1ccc(CNc2nc(NCC3CC3)nc(NC3Cc4ccccc4C3)n2)cc1 [Cpd 472]
[1]; [8]
  IC50: 3 µM
[2]; HCT-116, 72 h, Table 5b
  IC50: 1000 nM
[3]; [9]
  EC50: 1000 nM

## Nc1ccccc1NC(=O)c1ccc(NCc2ccc(OC(F)(F)F)cc2)cc1 [Cpd 426, N-(2-Amino-phenyl)-4-(4-trifluoromethoxy-benzylamino)-benzamide]
[1]; [4]
  IC50: 2 µM
[2]; HCT-116, 72 h, Table 5F
  IC50: 1000 nM
[3]; [5]
  EC50: 10000 nM

## Nc1nc(CC(=O)N2CCN(Cc3ccc4c(c3)OCO4)CC2)nc(NCc2ccc(C(=O)Nc3ccccc3N)cc2)n1 [18b]
[1]; [10]
  IC50: 0.6 µM
[2]; HCT-116, 72 h, Table 5a
  IC50: 5000 nM
[3]; [11]
  EC50: 10000 nM

## Nc1ccccc1NC(=O)c1ccc(CNc2nc(NC3CC3)nc(NC3Cc4ccccc4C3)n2)cc1 [Cpd 19]
[1]; [10]
  IC50: 0.9 µM
[2]; HCT-116, 72 h, Table 5a
  IC50: 1000 nM
[3]; [11]
  EC50: 1000 nM

## Nc1ccccc1NC(=O)c1ccc(Cn2cnc3ccc(Cl)cc3c2=O)cc1 [Cpd 336]
[1]; [4]
  IC50: 1 µM
[2]; HCT-116, 72 h, Table 5F
  IC50: 400 nM
[3]; [5]
  EC50: < 1000 nM

## Nc1ccccc1NC(=O)c1ccc(Cn2cnc3ccc(Br)cc3c2=O)cc1 [Cpd 346, N-(2-Amino-phenyl)-4-(6-bromo-4-oxo-4H-quinazolin-3-ylmethyl)-benzamide]
[1]; [4]
  IC50: 3 µM
[2]; HCT-116, 72 h, Table 5F
  IC50: 500 nM
[3]; [5]
  EC50: < 1000 nM

## Nc1ccccc1NC(=O)c1ccc(CNc2ccc3[nH]c(SCc4cccnc4)nc3c2)cc1 [Cpd 451]
[1]; [4]
  IC50: 4 µM
[2]; HCT-116, 72 h, Table 5F
  IC50: 200 nM
[3]; [5]
  EC50: 3000 nM

## CNc1nc2ccc(NCc3ccc(C(=O)Nc4ccccc4N)cc3)cc2n1C [Cpd 580]
[1]; [4]
  IC50: 4 µM
[2]; HCT-116, 72 h, Table 5F
  IC50: 300 nM
[3]; [5]
  EC50: < 1000 nM

## Nc1ccccc1NC(=O)c1ccc(-c2cccc(CNCc3ccccn3)c2)cc1 [Cpd 187]
[1]; [4]
  IC50: 2 µM
[2]; HCT-116, 72 h, Table 5F
  IC50: 5000 nM
[3]; [5]
  EC50: 2000 nM

## Nc1ccccc1NC(=O)c1ccc(CNc2nc(Cl)cc(NCc3cccnc3)n2)cc1 [Cpd 420, N-(2-Amino-phenyl)-4-({4-chloro-6-[(pyridin-3-ylmethyl)-amino]-pyrimidin-2-ylamino]-methyl)-benzamide]
[1]; [4]
  IC50: 3 µM
[2]; HCT-116, 72 h, Table 5F
  IC50: 700 nM
[3]; [5]
  EC50: 1000 nM

## Nc1nc(NCc2ccc(/C=C/C(=O)Nc3ccccc3N)cc2)nc(NC2Cc3ccccc3C2)n1 [Cpd 83]
[1]; [10]
  IC50: 3 µM
[2]; HCT-116, 72 h, Table 5a
  IC50: 5000 nM
[3]; [11]
  EC50: 5000 nM

## Nc1ccccc1NC(=O)c1ccc(CNc2ccc3c(c2)OCO3)cc1 [Cpd 428, N-(2-Amino-phenyl)-4-(benzo[1,3]dioxol-5-ylaminomethyl)-benzamide]
[1]; [4]
  IC50: 0.7 µM
[2]; HCT-116, 72 h, Table 5F
  IC50: 700 nM
[3]; [5]
  EC50: 1000 nM

## Nc1ccccc1NC(=O)c1ccc(CNc2ccc3oc(SCc4cccnc4)nc3c2)cc1 [Cpd 452, N-(2-Amino-phenyl)-4-{[2-(pyridin-3-ylmethylsulfanyl)-benzooxazol-5-ylamino]-methyl}-benzamide]
[1]; [4]
  IC50: 3 µM
[2]; HCT-116, 72 h, Table 5F
  IC50: 300 nM
[3]; [5]
  EC50: 2000 nM

## Cc1c(Cc2ccc(C(=O)Nc3ccccc3N)cc2)sc(NC(=O)c2ccccc2)c1C#N [Cpd 360, 4-(5-Benzoylamino-4-cyano-3-methyl-thiophen-2-ylmethyl)-N-(2-amino-phenyl)-benzamide]
[1]; [4]
  IC50: 5 µM
[2]; HCT-116, 72 h, Table 5F
  IC50: 200 nM
[3]; [5]
  EC50: 1000 nM

## CN(Cc1ccc(C(=O)Nc2ccccc2N)cc1)c1nc(N)nc(NC2Cc3ccccc3C2)n1 [Cpd 216]
[1]; [8]
  IC50: 0.5 µM
[2]; HCT-116, 72 h, Table 5b
  IC50: 400 nM
[3]; [9]
  EC50: 2000 nM

— patent US7868204B2, “Inhibitors of histone deacetylase” (MethylGene Inc., priority 2001, dated 2011)
